Like-named read-outs stand apart in the source and are kept apart here.
Experiments:
[1] = tested on: cisplatin-sensitive cells (A2780); assay: MTT cytotoxicity assay, A2780 cells; type: cell-based, human; settings: Table A; average of three independent determinations; read-out: IC50 A2780 (ovarian)
[2] = tested on: HeLa cervical adenocarcinoma cells; assay: MTT cytotoxicity assay, HeLa cells; type: cell-based, human
NTERA-2 = assay: MTT cytotoxicity assay, NTERA-2 cells; type: cell-based, human; settings: Table 1; 72 h exposure; ± standard deviation; read-out: IC50 NTERA-2 testis carcinoma
[3] = tested on: DU 145 (prostate carcinoma); assay: MTT cytotoxicity assay, DU 145 cells; type: cell-based, human; settings: Table 2; cisplatin-resistant cell line; 72 h exposure; read-out: IC50 DU 14S prostate carcinoma
[4] = tested on: cisplatin-resistant ovarian carcinoma cells (A2780CP70); assay: MTT cytotoxicity assay, A2780CP70 cells; type: cell-based, human
[5] = tested on: MDA-MB-231 (breast adenocarcinoma); assay: MTT cytotoxicity assay, MDA-MB-231 cells; type: cell-based, human; settings: Table 2; cisplatin-resistant cell line; 72 h exposure; read-out: IC50 MDA-M8-231 breast adenocarcinoma
U2OS [6] = settings: Table 1; 72 h exposure; value taken from ref 4S; read-out: IC50 U2OS bone osteosarcoma; cited from earlier work
[7] = tested on: cisplatin-sensitive cells (A2780); settings: Table 1; 72 h exposure; value taken from ref 4S; read-out: IC50 A2780 ovarian carcinoma; cited from earlier work
U2OS [8] = assay: MTT cytotoxicity assay, U2OS cells; type: cell-based, human; settings: Table A; average of three independent determinations; read-out: IC50 U2OS (bone)
confluent A549 cells = assay: MTT cytotoxicity assay, confluent A549 cells; type: cell-based, human; settings: Table 2; confluent cells; 72 h exposure; read-out: IC50 A549 (confluent) lung carcinoma
MRC-5 [9] = assay: MTT cytotoxicity assay, MRC-5 normal lung fibroblasts; type: cell-based, human; settings: Table A; average of three independent determinations; read-out: IC50 MRC5 (lung normal)
Protocol: (§1) In vitro toxicity of the rhenium (v) oxo complexes, 1 and 2 towards a panel of human cell lines was determined using the colorimetic MTT [[3-(4,5-dimethylithiazol-2-yl)-2,5-diphenyltetrazolium bromide] assay.
(§2) The in vitro effect of rhenium(V) oxo complexes 1 and 2 toward a panel of human cell lines was determined by the colorimetric MTT [3-(4,5-dimethylthiazol-2-yl)-2,5-diphenyltetrazolium bromide] assay. […] The IC50 values, or concentration required to induce 50% cell death, were derived from dose—response curves and are summarized in Table 1.
(§3) Cells (2×10^3 cells/well) were seeded in a 96-well plate. […] 1 and 2 were prepared as 10 mM solutions in DMSO and diluted using media. The final concentration of DMSO in each well was 0.5%, and this amount was also present in the untreated control. After 72 h, the medium was removed, 200 μL of a 0.4 mg/mL solution of MTT in DMEM, RPMI, or McCoy's 5A was added, and the plate was incubated for an additional 1-2 h. The DMEM/MTT, RPMI/MTT, or McCoy's 5A/MTT mixture was aspirated, and 200 μL of DMSO was added to dissolve the resulting purple formazan crystals. The absorbance of the solution wells was read at 550 nm. Absorbance values were normalized to DMSO-containing control wells and plotted as the concentration of test compound versus % cell viability. IC50 values were interpolated from the resulting dose-dependent curves. The reported IC50 values are the average from at least three independent experiments, each of which consisted of six replicates per concentration level.

A549 cells [10] = assay: MTT cytotoxicity assay, A549 cells; type: cell-based, human
Protocol: as §1, §2, §3

[11] = tested on: MCF-7 (breast adenocarcinoma); assay: MTT cytotoxicity assay, MCF-7 cells; type: cell-based, human; settings: Table 2; cisplatin-resistant cell line; 72 h exposure
[12] = tested on: HT-29 (colorectal adenocarcinoma); assay: MTT cytotoxicity assay, HT-29 cells; type: cell-based, human; settings: Table 2; cisplatin-resistant cell line; 72 h exposure
Protocol: Cytotoxicity MTT Assay. […] Cells (2×10^3 cells/well) were seeded in a 96-well plate. […] The final concentration of DMSO in each well was 0.5%, and this amount was also present in the untreated control. After 72 h, the medium was removed, 200 μL of a 0.4 mg/mL solution of MTT in DMEM, RPMI, or McCoy's 5A was added, and the plate was incubated for an additional 1-2 h. The DMEM/MTT, RPMI/MTT, or McCoy's 5A/MTT mixture was aspirated, and 200 μL of DMSO was added to dissolve the resulting purple formazan crystals. The absorbance of the solution wells was read at 550 nm. Absorbance values were normalized to DMSO-containing control wells and plotted as the concentration of test compound versus % cell viability. IC50 values were interpolated from the resulting dose-dependent curves. The reported IC50 values are the average from at least three independent experiments, each of which consisted of six replicates per concentration level.

MRC-5 [13] = settings: Table 1; 72 h exposure; value taken from ref 4S; read-out: IC50 MRC-5 lung fibroblast; cited from earlier work
[14] = tested on: PC-3 (prostate adenocarcinoma); assay: MTT cytotoxicity assay, PC-3 cells; type: cell-based, human; settings: Table 2; cisplatin-resistant cell line; 72 h exposure
A549 cells [15] = assay: Intracellular ROS assay (DCFH-DA, flow cytometry); type: cell-based, human; settings: 1, 2, shikonin 20 μM for 12 h; H2O2 1 mM for 1 h
Protocol: Characterization of Necroptotic Features. Having established that necrosome formation is a determinant of 1 and 2 activity, additional studies were performed to understand the cascade of events leading from necrosome formation to cell death. Necrosomes generate abnormally high levels of mitochondrial ROS, leading to ATP depletion and eventual degradation of the mitochondrial membrane potential. With this fact in mind, intracellular ROS production was quantified by flow cytometry using 6-carboxy-2′,7′-dichlorodihydrofluorescein diacetate (DCFH-DA), a well-established ROS indicator.
In FIG. 2: (A) Representative histograms displaying the green fluorescence emitted by DCFH-DA-stained A549 cells (i) and A549 cells treated with 1(20 μM for 12 h) (iii) or 1 (20 μM for 12 h) with nectrostatin-1 (60 μM for 12 h) (ii). (B) Representative histograms displaying the green fluorescence emitted by DCFH-DA-stained A549 cells (i) and A549 cells treated with 2 (20 μM for 12 h) (iii) or 2 (20 μM for 12 h) with nectrostatin-1 (60 μM for 12 h) (ii). (C) Representative histograms displaying the green fluorescence emitted by DCFH-DA-stained A549 cells (i) and A549 cells treated withH2O2 (1mM for 1 h) (iii). (D) Representative histograms displaying the green fluorescence emitted by DCFH-DA-stained A549 cells (i) and A549 cells treated with shikonin (20 μM for 12 h) (iii).
Intracellular ROS Assay. Untreated and treated A549 cells (1.5×10^6 cells/well) grown in six-well plates were incubated with 6-carboxy-2′,7′-dichlorodihydrofluorescein diacetate (20 μM) for 30 min. The cells were then washed with PBS (1 mL x 3), harvested, and analyzed by using a FACSCalibur-HTS flow cytometer (BD Biosciences) (20 000 events per sample were acquired). The FL1 channel was used to assess intracellular ROS levels. Cell populations were analyzed using the FlowJo software (Tree Star).

SMILES	IC50 [1] [µM]	IC50 ([2]; Table 1, 72 h exposure, ± standard deviation, read-out: IC50 HeLa cervical adenocarcinoma) [µM]	IC50 ([2]; Table A, average of three independent determinations, read-out: IC50 HeLa (cervical)) [µM]	IC50 (NTERA-2) [µM]	IC50 [3] [µM]	IC50 ([4]; Table 1, 72 h exposure, ± standard deviation, read-out: IC50 A2780CP70 ovarian carcinoma) [µM]	IC50 ([4]; Table A, average of three independent determinations, read-out: IC50 A280CP70 (ovarian)) [µM]	IC50 [5] [µM]	IC50 (U2OS [6]) [µM]	IC50 [7] [µM]	IC50 (U2OS [8]) [µM]	IC50 (confluent A549 cells) [µM]	IC50 (MRC-5 [9]) [µM]	IC50 (A549 cells [10]; Table 1, 72 h exposure, ± standard deviation, read-out: IC50 A549 lung carcinoma) [µM]	IC50 (A549 cells [10]; Table A, average of three independent determinations, read-out: IC50 A549 (lung)) [µM]	IC50 [11] [µM]	IC50 [12] [µM]	IC50 (MRC-5 [13]) [µM]	IC50 [14] [µM]	intracellular ROS versus untreated control cells (A549 cells [15])
N.N.[Cl][Pt][Cl] [cisplatin, reference compound]	1.41 ± 0.037	4.1 ± 0.113	4.1 ± 0.011	0.385 ± 0.049	> 100	8.42 ± 0.205	8.42 ± 0.205	43.6 ± 7.07	4.6 ± 0.6	0.7 ± 0.2	4.6 ± 0.6	9.42 ± 1.94	11.1 ± 1.33	3.23 ± 0.467	2.74 ± 0.006	9.74 ± 0.537	29.6 ± 1.33	5.3 ± 0.6	10.2 ± 0.919	–
OO [Compound H2O2, H2O2, reference compound]	–	–	–	–	–	–	–	–	–	–	–	–	–	–	–	–	–	–	–	significantly higher levels of measurable ROS

— patent US20150299233A1, “COMPOSITIONS AND METHODS COMPRISING RHENIUM FOR THE TREATMENT OF CANCERS” (Massachusetts Institute of Technology, priority 2014, published 2015)
